Where a SMILES comes first, the peptide text is derived from it. Bridges are numbered along the chain shown (N, C = ends). [ ]: non-standard residue; d: D form. The star is where a group is joined. DOTA = O=C(O)CN1CCN(CC(=O)O)CCN(CC(=O)*)CCN(CC(=O)O)CC1; Pen = CC(C)(S)[C@H](N)C(=O)O; Orn = NCCC[C@H](N)C(=O)O; Ahx = NCCCCCC(=O)O
What was measured:
in vivo = assay: in vivo; parameters: species or system Swiss (nu/nu) mice; conditions: Swiss (nu/nu), mouse, iv, 2 MBq
Experimental: For tumour targeting studies, inocula (100 µL) containing a suspension of 5 × 10^6 freshly harvested A549 or DLD-1 cells in phosphate buffered-saline were injected subcutaneously into the right shoulder blade in Swiss (nu/nu) mice (n = 5 in each group). When the tumour size reached 250 mm^3 (approximatively 2-weeks), 2 MBq of ^111In-DOTA-hUII or ^111In-DOTA-urantide were injected into the tail vein. After 24 h, animals were sacrificed, and tumours were collected, directly frozen in isopentane (−50 °C) and stored at −80 °C.

in vitro = in vitro ADME, human
Experimental: The mixture was incubated in a 5% CO2, 37 °C and 100 μL aliquots (in triplicates) were removed at different time points and treated with 200 μL of EtOH to precipitate serum proteins. Samples were then centrifuged for 15 min at 2500g and after centrifugation, 50 μL of supernatant was counted, and also analysed by thin layer chromatography to determine the amount of intact peptide and its metabolites in the serum.

[1] = parameters: species or system C57BL/6 mice; conditions: mouse, in vivo, iv
Experimental: For biodistribution studies, C57BL6/6 wild-type mice were injected with ^111In-DOTA-hUII (3 MBq, 100 µL) into the tail vein. Mice were sacrificed at 4, 24, 48 and 72 h post-injection and blood and organs were collected. All samples were analysed with a gamma counter and the data presented were calculated as the percent injected dose per gram of tissue (% ID/g). Data were expressed as mean ± SEM obtained from four animals per kinetic time.

human UT [2] = target: T1, human UT (Homo sapiens, UniProt Q9UKP6); assay: UT internalisation assay (ELISA) in HEK-293 cells expressing UT-MYC; assay type: cell-based; conditions: 1 h, graded concentrations up to 10^−6 M
T1 construct: expressed in transfected cells; host or cells: HEK-293
T1 sequence (Q9UKP6 1-389): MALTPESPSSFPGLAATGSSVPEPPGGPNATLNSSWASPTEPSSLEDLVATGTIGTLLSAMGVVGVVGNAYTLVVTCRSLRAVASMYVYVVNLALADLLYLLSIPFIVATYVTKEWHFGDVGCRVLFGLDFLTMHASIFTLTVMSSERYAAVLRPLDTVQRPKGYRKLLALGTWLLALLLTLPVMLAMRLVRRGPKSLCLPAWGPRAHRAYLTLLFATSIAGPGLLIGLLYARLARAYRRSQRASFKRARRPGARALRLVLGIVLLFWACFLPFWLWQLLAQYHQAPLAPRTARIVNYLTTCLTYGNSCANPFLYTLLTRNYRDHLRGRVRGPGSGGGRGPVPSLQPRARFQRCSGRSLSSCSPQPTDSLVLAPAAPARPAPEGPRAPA
Experimental: For ELISA experiments, HEK-293 cells expressing UT-MYC were plated at 10,000 cells/well into white, 96-well plates (Corning, Bagneaux-sur-Loing, France), previously coated with poly-L-ornithine (100 µg/mL, 1 h, 37 °C) and incubated overnight in culture medium. […] Cells were permeabilised or not with Triton X-100 (0.05%, 5 min). Non-specific binding sites were blocked with FBS (10%) and normal donkey serum (NDS, 2%, 1 h). Cells were then incubated with anti-MYC antibody (1 h, 20 °C) followed by incubation with GAM-HRP (1 h, 20 °C). After washes, chemoluminescence was detected with an ELISA kit (ThermoFisher Scientific, Montigny-Le-Bretonneux, France) and the InfinitePro200 plate reader (TECAN FRANCE, Lyon). Data are expressed as the ratio between intensity measured on the permeabilised cells and that measured on the non-permeabilised cells, compared to the average control value.

human UT-GFP = target: T2, human UT-GFP (Homo sapiens, UniProt Q9UKP6); assay: UT internalisation by confocal microscopy in HEK-293 cells expressing UT-GFP; assay type: cell-based; conditions: 10^−7 M, 1 h
T2 construct: expressed in transfected cells; host or cells: HEK-293 (transient)
T2 sequence (Q9UKP6 1-389): T1 sequence (Q9UKP6 1-389)
Experimental: For cytochemistry experiments, HEK-293 cells expressing UT-GFP were seeded at 70,000 cells/well into transparent, 24-well plates (Corning, Bagneaux-sur-Loing, France), previously coated with human fibronectin (25 µg/mL, overnight, 4 °C) and incubated overnight in culture medium. […] Cells were rinsed with PBS, fixed with paraformaldehyde (4%, 10 min) and counterstained with DAPI (1 µg/mL, 5 min) to label nuclei. Image analysis was performed by confocal microscopy (Leica TCS SP8 confocal laser scanning microscope).

DLD-1 cells [3] = assay: Cell migration assay (modified Boyden chamber), DLD-1; assay type: cell-based, human; conditions: 10^−9 or 10^−7 M, 24 h
Experimental: (§1) DLD-1 and A549 cells were seeded (50,000 cells) on transwell filters with 8-µm pores previously coated with human fibronectin (25 µg/mL, 4 °C, overnight) in serum-free medium on the upper chamber. […] After 24 h incubation period at 37 °C, filters were rinsed with PBS and non-migrating cells were removed from the upper surface by using a cotton-swab. Migrating cells were fixed in successive baths of methanol (50, 70, 90 and 100%), stained with eosin and haematoxylin and filters were mounted on glass slides with Mowiol. Random phase contrast images of filters were then recorded, using a digital camera connected to a Nikon microscope (Eclipse TS-100) and image analysis was performed by using Image J’s Cell Counter. The data were represented as the ratio of treatment chemoattraction normalised to control.

A549 cells [4] = assay: Cell migration assay (modified Boyden chamber), A549; assay type: cell-based, human; conditions: 10^−9 or 10^−7 M, 24 h
Experimental: as §1

DLD-1 cells [5] = assay: Cell proliferation, DLD-1; assay type: cell-based, human; conditions: 10^−9 or 10^−7 M, only observable after 48 h
A549 cells [6] = assay: Cell proliferation, A549; assay type: cell-based, human; conditions: 10^−9 or 10^−7 M, only observable after 48 h
human UT [7] = target: T1, human UT; assay: Competition binding of ^125I-hUII on HEK-293 cells expressing UT; conditions: displacement of ^125I-hUII (0.2 nM), HEK-293 cells expressing human UT, 2 h 22 °C
Experimental: Cultured HEK-293 cells expressing UT-MYC were rinsed three times with PBS, dried under a cold air stream and stored at −80 °C until binding experiments. […] At the end of the incubation, cells were washed three times with assay buffer, solubilised with 1% SDS and the radioactivity was counted in a gamma counter (LKB Wallac, Evry, France).

human UT [8] = target: T1, human UT; assay: Calcium assay (fluo-4, FlexStation) in HEK-293 cells expressing UT; assay type: cell-based; conditions: [Ca^2+]c increase, HEK-293 cells expressing human UT, 10^−11 to 10^−6 M
Experimental: HEK-293 cells expressing UT-MYC were plated at 50,000 cells/well into clear-bottom, black, 96-well plates (Corning, Bagneaux-sur-Loing, France), previously coated with poly-L-ornithine (100 µg/mL, 1 h, 37 °C) and incubated overnight in culture medium. After 24 h, cells were rinsed twice with HBSS buffer (20 mM HEPES, 0.5 mM MgCl2, 2.6 mM CaCl2, 7.7 mM Na2CO3, 1.4 mM MgSO4, 5.3 mM KCl, 138 mM NaCl, 0.1% BSA, 5.5 mM glucose, 2.5 mM probenecid, pH 7.4) (Sigma Aldrich, Saint-Quentin-Fallavier, France) and loaded (40 min at 37 °C) with the calcium-sensitive dye fluo-4 AM (ThermoFisher Scientific, Montigny-Le-Bretonneux, France) containing pluronic acid (20% in DMSO). […] Data were expressed as the ratio of maximum response to the average control value.

[9] = total radioactivity, Ratio tumour/muscle

In the case of `CC(C)[C@H](NC(=O)[C@@H]1CSSC(C)(C)[C@H](NC(=O)[C@H](CC(=O)O)NC(=O)CCCCCNC(=O)CN2CCN(CC(=O)O)CCN(CC(=O)O)CCN(CC(=O)O)CC2)C(=O)N[C@@H](Cc2ccccc2)C(=O)N[C@H](Cc2c[nH]c3ccccc23)C(=O)N[C@@H](CCCN)C(=O)N[C@@H](Cc2ccc(O)cc2)C(=O)N1)C(=O)O` [^111In-DOTA-urantide, metal not drawn] ({DOTA-Ahx}-D[Pen]F[dW][Orn]YCV-OH; disulfide 2-7), the tissue to tissue ratio at 24 h (in vivo; total radioactivity) is reported as 2.08 ± 0.45, the tissue to tissue ratio at 24 h (in vivo; [9]) is reported as 2.47 ± 0.15 and the tissue to tissue ratio at 24 h (in vivo; tumour/muscle ratio) is reported as ~2.5.

With `CC(C)[C@H](NC(=O)[C@@H]1CSSC[C@H](NC(=O)[C@H](CC(=O)O)NC(=O)[C@@H]2CCCN2C(=O)[C@@H](NC(=O)[C@H](CCC(=O)O)NC(=O)CCCCCNC(=O)CN2CCN(CC(=O)O)CCN(CC(=O)O)CCN(CC(=O)O)CC2)[C@@H](C)O)C(=O)N[C@@H](Cc2ccccc2)C(=O)N[C@@H](Cc2c[nH]c3ccccc23)C(=O)N[C@@H](CCCCN)C(=O)N[C@@H](Cc2ccc(O)cc2)C(=O)N1)C(=O)O` [^111In-DOTA-hUII, metal not drawn] the “Percent of Radiolabelled Peptide” value (in vitro) was 98 ± 2 (%), the metabolised at 3 h, 0.6 µM (in vitro; human, serum) was 30% and the remaining at 1 h, 0.6 µM (in vitro; human, serum) was 82 ± 2%. For the same compound, the remaining at 3 h, 0.6 µM (in vitro; human, serum) was 71 ± 4%, the “radioactive DOTA-peptide cleared from animals” value [1] was “more than 90%” and the tissue to tissue ratio at 24 h (in vivo; total radioactivity) was 2.85 ± 0.66. It also gave a tissue to tissue ratio at 24 h (in vivo; [9]) of 3.33 ± 0.96 and a tissue to tissue ratio at 24 h (in vivo; tumour/muscle ratio) of ~2.5.

In the case of `CC(C)[C@H](NC(=O)[C@@H]1CSSC[C@H](NC(=O)[C@H](CC(=O)O)NC(=O)[C@@H]2CCCN2C(=O)[C@@H](NC(=O)[C@@H](N)CCC(=O)O)[C@@H](C)O)C(=O)N[C@@H](Cc2ccccc2)C(=O)N[C@@H](Cc2c[nH]c3ccccc23)C(=O)N[C@@H](CCCCN)C(=O)N[C@@H](Cc2ccc(O)cc2)C(=O)N1)C(=O)O` [hUII, H2N-ETPDc-[CFWKYC]V-CO2H], the “internalisation rate of UT (ELISA)” value (human UT [2]) is reported as “provoked a dose-dependent increase in internalisation rate of UT”, the “accumulation of UT in cytosolic puncta (confocal microscopy)” value (“accumulation of UT in cytosolic puncta” for short) (human UT-GFP) is reported as “promoted a strong accumulation of UT in cytosolic puncta into cells” and the chemotactic migration (DLD-1 cells [3]) is reported as “stimulated chemotactic migration”. For the same compound, the chemotactic migration (A549 cells [4]) was “stimulated chemotactic migration”, the proliferation rate (DLD-1 cells [5]) was “increase the proliferation rate” and the proliferation rate (A549 cells [6]) was “increase the proliferation rate”.

In the case of `CC(C)[C@H](NC(=O)[C@@H]1CSSC[C@H](NC(=O)[C@H](CC(=O)O)NC(=O)[C@@H]2CCCN2C(=O)[C@@H](NC(=O)[C@H](CCC(=O)O)NC(=O)CCCCCNC(=O)CN2CCN(CC(=O)O)CCN(CC(=O)O)CCN(CC(=O)O)CC2)[C@@H](C)O)C(=O)N[C@@H](Cc2ccccc2)C(=O)N[C@@H](Cc2c[nH]c3ccccc23)C(=O)N[C@@H](CCCCN)C(=O)N[C@@H](Cc2ccc(O)cc2)C(=O)N1)C(=O)O` [DOTA-hUII, DOTA-Ahx-ETPD[CFWKYC]V], the IC50 (human UT [7]) is reported as 9.13 ± 2.06 nM, the EC50 (human UT [8]) is reported as 19.4 ± 2.47 nM and the “internalisation rate of UT (ELISA)” value (human UT [2]) is reported as “exerted similar effects, with very close potency and efficacy”. The “accumulation of UT in cytosolic puncta” value (human UT-GFP) was “promoted a strong accumulation of UT in cytosolic puncta into cells”, the tissue to tissue ratio at 24 h (in vivo) was 2.85 ± 0.66 and the tissue to tissue ratio at 24 h (in vivo; Ratio tumour/muscle) was 3.33 ± 0.96.

With `CC(C)[C@H](NC(=O)[C@@H]1CSSC(C)(C)[C@H](NC(=O)[C@H](CC(=O)O)NC(=O)CCCCCNC(=O)CN2CCN(CC(=O)O)CCN(CC(=O)O)CCN(CC(=O)O)CC2)C(=O)N[C@@H](Cc2ccccc2)C(=O)N[C@H](Cc2c[nH]c3ccccc23)C(=O)N[C@@H](CCCN)C(=O)N[C@@H](Cc2ccc(O)cc2)C(=O)N1)C(=O)O` [DOTA-urantide, DOTA-Ahx-D[Pen-F-W-Orn-YC]V] ({DOTA-Ahx}-D[Pen]F[dW][Orn]YCV-OH; disulfide 2-7) the “internalisation rate of UT (ELISA)” value (human UT [2]) was “failed to provoke UT internalisation”, the “accumulation of UT in cytosolic puncta” value (human UT-GFP) was “ineffective” and the tissue to tissue ratio at 24 h (in vivo) was 2.08 ± 0.45. It also gave a tissue to tissue ratio at 24 h (in vivo; Ratio tumour/muscle) of 2.47 ± 0.15.

In the case of `CC(C)[C@H](NC(=O)[C@@H]1CSSC(C)(C)[C@H](NC(=O)[C@@H](N)CC(=O)O)C(=O)N[C@@H](Cc2ccccc2)C(=O)N[C@H](Cc2c[nH]c3ccccc23)C(=O)N[C@@H](CCCN)C(=O)N[C@@H](Cc2ccc(O)cc2)C(=O)N1)C(=O)O` [urantide, c-[Pen^5, D-Trp^7, Orn^8]hUII4-11, reference compound] (H-D[Pen]F[dW][Orn]YCV-OH; disulfide 2-7; N-terminus and C-terminus assumed), the IC50 (human UT [7]) is reported as 29 ± 11.2 nM, the EC50 (human UT [8]) is reported as 50.5 ± 16.1 nM and the “internalisation rate of UT (ELISA)” value (human UT [2]) is reported as “failed to provoke UT internalisation”. For the same compound, the “accumulation of UT in cytosolic puncta” value (human UT-GFP) was “ineffective”.

Reference: article PMC7175314, “Development of Novel ^111-In-Labelled DOTA Urotensin II Analogues for Targeting the UT Receptor Overexpressed in Solid Tumours” (Biomolecules, 2020)
